One assay has as its target T1, Abl kinase (Homo sapiens, UniProt P00519).
T1 construct: purchased Millipore (KinaseProfiler Service)
Kind of assay: KinaseProfiler kinase inhibition assay, Abl. The conditions noted are these: 1 μM compound. The format is biochemical.

The target in another assay is T2, Alk kinase (Homo sapiens, UniProt Q9UM73).
T2 construct: purchased Millipore (KinaseProfiler Service)
The assay can be described thus: KinaseProfiler kinase inhibition assay, Alk. The format is biochemical. The conditions noted are these: 1 μM compound.

A further assay concerns the target T3, c-Src kinase (Homo sapiens, UniProt P12931).
T3 construct: purchased Millipore (KinaseProfiler Service)
The assay can be described thus: KinaseProfiler kinase inhibition assay, c-Src. It is filed as biochemical. The conditions noted are these: 1 μM compound; read-out: % Inhibition @1 μM cSrc.

A further assay concerns the target T4, FGFR1 kinase (Homo sapiens, UniProt P11362).
T4 construct: purchased Millipore (KinaseProfiler Service)
The assay can be described thus: KinaseProfiler kinase inhibition assay, FGFR1. It is filed as biochemical. The conditions noted are these: 1 μM compound.

The target of another assay is T5, KDR kinase (Homo sapiens, UniProt P35968).
T5 construct: purchased Millipore (KinaseProfiler Service)
T5 sequence (P35968 20-1356): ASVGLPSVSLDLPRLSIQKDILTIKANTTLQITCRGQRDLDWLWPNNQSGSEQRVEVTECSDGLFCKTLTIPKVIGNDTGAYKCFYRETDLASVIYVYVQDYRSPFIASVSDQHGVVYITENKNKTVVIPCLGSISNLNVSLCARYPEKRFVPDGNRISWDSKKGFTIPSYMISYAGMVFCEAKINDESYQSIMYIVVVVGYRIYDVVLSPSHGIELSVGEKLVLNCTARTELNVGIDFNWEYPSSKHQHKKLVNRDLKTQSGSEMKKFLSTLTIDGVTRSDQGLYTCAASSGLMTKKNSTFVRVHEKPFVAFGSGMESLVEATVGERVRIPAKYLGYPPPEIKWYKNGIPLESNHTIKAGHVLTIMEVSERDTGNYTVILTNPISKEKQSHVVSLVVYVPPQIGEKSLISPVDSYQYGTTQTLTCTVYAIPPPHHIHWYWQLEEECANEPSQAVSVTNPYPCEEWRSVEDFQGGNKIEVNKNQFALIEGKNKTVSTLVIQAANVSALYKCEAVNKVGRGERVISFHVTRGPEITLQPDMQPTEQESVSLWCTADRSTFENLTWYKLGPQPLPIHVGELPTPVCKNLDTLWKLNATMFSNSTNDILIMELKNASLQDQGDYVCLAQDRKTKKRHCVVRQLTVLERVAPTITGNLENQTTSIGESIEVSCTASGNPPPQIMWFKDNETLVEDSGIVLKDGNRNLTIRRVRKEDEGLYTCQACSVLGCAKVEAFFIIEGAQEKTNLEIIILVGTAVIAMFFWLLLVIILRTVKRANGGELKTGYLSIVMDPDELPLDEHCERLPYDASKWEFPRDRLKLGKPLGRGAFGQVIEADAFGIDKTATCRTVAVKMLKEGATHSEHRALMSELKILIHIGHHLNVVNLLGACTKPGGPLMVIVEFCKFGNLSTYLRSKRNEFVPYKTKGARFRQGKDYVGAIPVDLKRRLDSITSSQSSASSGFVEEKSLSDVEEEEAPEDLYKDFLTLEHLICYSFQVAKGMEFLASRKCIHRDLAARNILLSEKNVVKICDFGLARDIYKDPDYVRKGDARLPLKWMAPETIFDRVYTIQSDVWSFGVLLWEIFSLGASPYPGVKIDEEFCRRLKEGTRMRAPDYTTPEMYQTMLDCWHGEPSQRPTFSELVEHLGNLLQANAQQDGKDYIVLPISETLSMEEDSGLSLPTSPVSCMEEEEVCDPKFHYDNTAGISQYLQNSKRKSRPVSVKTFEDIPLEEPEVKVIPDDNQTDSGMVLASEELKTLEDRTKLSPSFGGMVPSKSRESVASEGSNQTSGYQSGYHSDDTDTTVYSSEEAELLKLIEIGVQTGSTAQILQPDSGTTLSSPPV
Kind of assay: KinaseProfiler kinase inhibition assay, KDR. The format is biochemical. The conditions noted are these: 1 μM compound.

For a further assay, the target named is T6, Ret kinase (Homo sapiens, UniProt P07949).
T6 construct: purchased Millipore (KinaseProfiler Service)
T6 sequence (P07949 29-1114): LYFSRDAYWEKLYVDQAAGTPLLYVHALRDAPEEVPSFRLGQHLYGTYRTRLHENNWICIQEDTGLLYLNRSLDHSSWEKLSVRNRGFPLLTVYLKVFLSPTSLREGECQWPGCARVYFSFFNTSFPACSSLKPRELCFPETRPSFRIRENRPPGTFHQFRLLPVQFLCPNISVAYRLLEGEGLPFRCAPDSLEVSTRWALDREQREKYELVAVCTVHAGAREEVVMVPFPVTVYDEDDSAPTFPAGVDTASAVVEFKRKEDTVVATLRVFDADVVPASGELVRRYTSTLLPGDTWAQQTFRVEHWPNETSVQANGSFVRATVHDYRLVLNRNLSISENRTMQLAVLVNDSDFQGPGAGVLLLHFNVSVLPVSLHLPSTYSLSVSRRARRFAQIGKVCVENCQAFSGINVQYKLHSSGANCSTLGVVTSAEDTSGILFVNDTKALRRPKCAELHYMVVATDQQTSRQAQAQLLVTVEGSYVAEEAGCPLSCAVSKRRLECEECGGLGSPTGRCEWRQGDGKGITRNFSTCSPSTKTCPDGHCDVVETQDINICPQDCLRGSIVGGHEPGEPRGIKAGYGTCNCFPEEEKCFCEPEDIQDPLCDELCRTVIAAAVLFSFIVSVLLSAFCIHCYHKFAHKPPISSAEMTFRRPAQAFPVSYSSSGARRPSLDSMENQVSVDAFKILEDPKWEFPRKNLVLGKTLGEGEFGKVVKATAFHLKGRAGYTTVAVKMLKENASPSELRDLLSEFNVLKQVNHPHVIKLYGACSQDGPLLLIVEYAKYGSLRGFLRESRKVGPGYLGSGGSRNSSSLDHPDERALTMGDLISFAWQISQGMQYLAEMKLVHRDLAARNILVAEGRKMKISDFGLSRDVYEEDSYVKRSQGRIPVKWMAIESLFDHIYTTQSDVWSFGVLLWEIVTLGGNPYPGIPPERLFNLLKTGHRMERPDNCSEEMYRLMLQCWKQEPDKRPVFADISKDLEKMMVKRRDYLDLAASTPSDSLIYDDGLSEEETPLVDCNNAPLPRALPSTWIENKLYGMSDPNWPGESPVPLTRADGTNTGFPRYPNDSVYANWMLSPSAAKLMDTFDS
Kind of assay: KinaseProfiler kinase inhibition assay, Ret. It is filed as biochemical. The conditions noted are these: 1 μM compound.

The target of another assay is T7, Tie2 (Homo sapiens, UniProt Q02763).
T7 construct: purchased Millipore (KinaseProfiler Service)
Kind of assay: KinaseProfiler kinase inhibition assay, Tie2. It is filed as biochemical. The conditions noted are these: 1 μM compound.

A further assay relates to MDA-MB134. Kind of assay: CellTiterblue viability, 72 hr, MDA-MB134. The conditions noted are these: MDA-MB134 cells. It is filed as cell-based. Here is the method: (§1) A number of studies were performed to analyze the consequences of tyrosine kinase inhibition in cell lines. To do this, 1000 cells are seeded in 27 μl/well in 384-well microplates, which are then placed in a humidified CO2 incubator at 37° C. overnight. The next day, 3 μl/well of 10× concentrated drug is added and the plates are returned to the incubator for 72 hr. After 72 hr incubation, plates are removed and […] CellTiterblue (Promega) viability reagent is added. Plates are returned to the incubator for 3 hr, after which it is fluorescence measurements are read on the Victor X3 plate reader (Perkin Elmer). Data are analyzed using Excel (Microsoft), and GI50 values are determined using Prism (Graphpad).
A general note: The colour change of resazurin is a common sign of viable cells or microbes.

The test system of another assay is AN3_CA. Kind of assay: CellTiterblue viability, 72 hr, AN3_CA. The conditions noted are these: Homo sapiens, AN3-CA, AN3_CA cells. It is filed as cell-based. As for the experimental part:
as §1

In the next assay the test system is Kato III. Kind of assay: CellTiterblue viability, 72 hr, Kato III. It is filed as cell-based. The conditions noted are these: Homo sapiens, Kato III cells. As for the experimental part:
as §1

The next assay has as its system KG1a. Kind of assay: CellTiterblue viability, 72 hr, KG1a. The format is cell-based. The conditions noted are these: Homo sapiens, KG-1a, KG1a cells. As for the experimental part:
as §1

The next assay relates to RT112. Kind of assay: CellTiterblue viability, 72 hr, RT112. The format is cell-based. The conditions noted are these: Homo sapiens, RT-112, RT112 cells. As for the experimental part: as §1

We go through 17 compounds from patent publication US10766879B2, “Pyrimidine derivatives as kinase inhibitors and their therapeutical applications” (NantBioScience, Inc., priority 2015, dated 2020).

Usually inhibition stands for the drop in the measured response relative to a control, in per cent. By GI50 is commonly meant the concentration giving 50% growth inhibition. Lower therefore signals greater sensitivity of the cells.

T1 sequence (P00519 whole entry): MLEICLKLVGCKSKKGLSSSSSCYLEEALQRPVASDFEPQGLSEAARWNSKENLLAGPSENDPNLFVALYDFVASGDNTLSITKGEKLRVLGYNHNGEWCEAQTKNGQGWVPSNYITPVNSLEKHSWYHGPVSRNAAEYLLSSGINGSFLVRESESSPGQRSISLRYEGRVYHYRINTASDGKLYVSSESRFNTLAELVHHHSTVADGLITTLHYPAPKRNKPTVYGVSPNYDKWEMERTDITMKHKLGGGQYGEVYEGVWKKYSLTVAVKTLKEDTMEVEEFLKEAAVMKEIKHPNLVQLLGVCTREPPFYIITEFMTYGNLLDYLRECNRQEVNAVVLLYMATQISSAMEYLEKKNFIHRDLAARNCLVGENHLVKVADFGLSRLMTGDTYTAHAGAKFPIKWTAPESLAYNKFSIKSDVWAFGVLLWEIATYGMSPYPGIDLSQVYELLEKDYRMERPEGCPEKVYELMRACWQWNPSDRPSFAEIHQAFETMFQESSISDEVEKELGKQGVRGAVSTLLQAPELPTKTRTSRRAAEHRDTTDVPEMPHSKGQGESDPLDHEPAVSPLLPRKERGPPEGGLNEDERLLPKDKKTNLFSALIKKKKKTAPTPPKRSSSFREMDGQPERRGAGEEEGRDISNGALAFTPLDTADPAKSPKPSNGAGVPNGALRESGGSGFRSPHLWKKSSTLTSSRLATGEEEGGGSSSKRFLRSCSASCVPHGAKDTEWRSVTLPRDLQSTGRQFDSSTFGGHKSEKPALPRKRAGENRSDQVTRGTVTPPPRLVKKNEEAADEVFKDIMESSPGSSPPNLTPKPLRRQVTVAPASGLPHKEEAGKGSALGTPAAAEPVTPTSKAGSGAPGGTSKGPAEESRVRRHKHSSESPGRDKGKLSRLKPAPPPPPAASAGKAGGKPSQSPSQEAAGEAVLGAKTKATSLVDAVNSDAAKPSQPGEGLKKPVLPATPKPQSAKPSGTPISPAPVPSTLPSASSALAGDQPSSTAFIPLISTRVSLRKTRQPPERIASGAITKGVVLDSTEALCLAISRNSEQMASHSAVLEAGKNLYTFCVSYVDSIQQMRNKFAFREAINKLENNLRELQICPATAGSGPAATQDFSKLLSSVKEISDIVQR
T2 sequence (Q9UM73 19-1620): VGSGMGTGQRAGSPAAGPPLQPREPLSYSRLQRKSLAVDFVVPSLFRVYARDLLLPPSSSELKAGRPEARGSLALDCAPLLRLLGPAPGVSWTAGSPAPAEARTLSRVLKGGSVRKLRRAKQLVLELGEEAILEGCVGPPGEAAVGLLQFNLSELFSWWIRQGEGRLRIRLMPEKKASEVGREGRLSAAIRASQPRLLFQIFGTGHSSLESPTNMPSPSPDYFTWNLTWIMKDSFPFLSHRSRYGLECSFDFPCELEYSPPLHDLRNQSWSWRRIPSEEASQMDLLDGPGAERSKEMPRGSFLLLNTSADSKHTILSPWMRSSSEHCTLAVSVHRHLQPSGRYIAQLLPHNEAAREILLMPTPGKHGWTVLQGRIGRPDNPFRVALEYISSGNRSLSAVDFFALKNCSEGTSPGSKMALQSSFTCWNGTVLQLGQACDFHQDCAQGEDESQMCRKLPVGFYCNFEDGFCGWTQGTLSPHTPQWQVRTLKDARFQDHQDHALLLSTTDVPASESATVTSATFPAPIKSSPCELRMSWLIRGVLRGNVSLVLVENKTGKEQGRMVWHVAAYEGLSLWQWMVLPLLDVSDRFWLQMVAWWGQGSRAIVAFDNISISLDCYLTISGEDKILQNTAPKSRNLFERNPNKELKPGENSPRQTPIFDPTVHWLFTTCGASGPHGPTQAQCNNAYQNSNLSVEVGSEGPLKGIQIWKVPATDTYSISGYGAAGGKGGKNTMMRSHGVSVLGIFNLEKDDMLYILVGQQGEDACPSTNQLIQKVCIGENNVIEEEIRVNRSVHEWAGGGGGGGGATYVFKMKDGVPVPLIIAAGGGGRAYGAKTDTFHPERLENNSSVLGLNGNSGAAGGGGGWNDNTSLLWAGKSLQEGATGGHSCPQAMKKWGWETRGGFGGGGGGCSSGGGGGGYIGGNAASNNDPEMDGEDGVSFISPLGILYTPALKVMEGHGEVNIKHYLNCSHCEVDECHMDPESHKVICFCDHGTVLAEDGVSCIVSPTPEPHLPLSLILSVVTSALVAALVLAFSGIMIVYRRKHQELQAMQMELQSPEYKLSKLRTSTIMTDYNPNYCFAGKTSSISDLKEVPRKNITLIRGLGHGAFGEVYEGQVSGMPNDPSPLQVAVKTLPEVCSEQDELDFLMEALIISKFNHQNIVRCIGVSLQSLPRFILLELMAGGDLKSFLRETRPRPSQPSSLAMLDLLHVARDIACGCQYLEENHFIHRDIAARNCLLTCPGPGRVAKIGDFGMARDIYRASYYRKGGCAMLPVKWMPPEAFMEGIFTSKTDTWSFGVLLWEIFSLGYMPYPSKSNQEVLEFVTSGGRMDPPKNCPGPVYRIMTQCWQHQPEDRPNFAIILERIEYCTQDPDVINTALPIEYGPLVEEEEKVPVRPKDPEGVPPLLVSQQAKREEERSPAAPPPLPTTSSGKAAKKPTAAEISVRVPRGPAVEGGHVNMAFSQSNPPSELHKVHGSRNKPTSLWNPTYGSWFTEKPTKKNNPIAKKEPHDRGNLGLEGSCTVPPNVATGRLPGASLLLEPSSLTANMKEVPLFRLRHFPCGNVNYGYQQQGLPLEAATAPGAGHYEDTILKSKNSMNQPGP

As for `Cc1cc2c(F)c(Oc3ncnc(Nc4ccc(N5CCN(C)CC5)cc4)c3Cl)ccc2[nH]1` [Compound 35, 5-chloro-6-((4-fluoro-2-methyl-1H-indol-5-yl)oxy)-N-(4-(4-methylpiperazin-1-yl)phenyl)pyrimidin-4-amine], the inhibition at 1 µM against Abl kinase was -15%; against Alk kinase it was -43%; at c-Src kinase, 2%; at FGFR1 kinase it was 96%; against KDR kinase it was 20%; against Ret kinase, -22%. In addition, at Tie2, the inhibition at 1 µM was 19%. Moreover, the GI50 in the assay on MDA-MB134, in the assay with AN3_CA, in the assay with Kato III, in the assay with KG1a and in the assay with RT112 was greater than 500 nM each time.

As for `Cc1cc2c(F)c(Oc3ncnc(Nc4ccc(N5CCN(C)CC5)cc4)c3C)ccc2[nH]1` [Compound 40], the inhibition at 1 µM is 2% on Abl kinase; -23% against Alk kinase; -2% on c-Src kinase; 91% at FGFR1 kinase; 12% at KDR kinase; -46% on Ret kinase. Besides, the inhibition at 1 µM at Tie2 came out at 13%. The GI50 in the assay on MDA-MB134 was 430 nM; with AN3_CA it was greater than 500 nM; with Kato III, greater than 500 nM; in the assay with KG1a, greater than 500 nM; in the assay with RT112, greater than 500 nM.

As to `Cc1cc2c(F)c(Oc3ncnc(Nc4ccc(N5CCN(C)CC5)cn4)c3C)ccc2[nH]1` [Compound 41], the inhibition at 1 µM was 2% on Abl kinase; -41% on Alk kinase; 8% at c-Src kinase; 41% on FGFR1 kinase; 5% against KDR kinase; -35% against Ret kinase. Moreover, the inhibition at 1 µM at Tie2 was determined as 12%. In addition, the GI50 with MDA-MB134 was 241 nM; in the assay on AN3_CA, greater than 500 nM; in the assay with Kato III, greater than 500 nM; in the assay on KG1a, greater than 500 nM; with RT112, greater than 500 nM.

With `CC(=O)N1CCN(c2ccc(Nc3cc(Oc4cc(F)c5[nH]c(C)cc5c4F)ncn3)cc2)CC1` [Compound 50], the inhibition at 1 µM is 36% against Abl kinase; 63% against Alk kinase; 58% on c-Src kinase; 89% against FGFR1 kinase; 97% at KDR kinase; 36% at Ret kinase. Also, at Tie2, the inhibition at 1 µM was found to be 48%. Moreover, the GI50 in the assay with AN3_CA is greater than 500 nM; with Kato III, 348 nM.

Regarding `Cc1cc2c(F)c(Oc3cc(Nc4cc(-c5ccccc5)[nH]n4)ncn3)ccc2[nH]1` [Example 4], the inhibition at 1 µM turned out to be 23% against Abl kinase; 53% against Alk kinase; 36% on c-Src kinase; 59% against FGFR1 kinase; 98% against KDR kinase; 27% on Ret kinase. Also, the inhibition at 1 µM on Tie2 turned out to be 30%. Moreover, the GI50 in the assay with AN3_CA was greater than 500 nM.

Regarding `CC(=O)Nc1ccc(Nc2cc(Oc3ccc4[nH]c(C)cc4c3F)ncn2)cc1` [Example 7], the inhibition at 1 µM is 8% against Abl kinase; 61% against Alk kinase; 14% on c-Src kinase; 96% on FGFR1 kinase; 98% against KDR kinase; -16% at Ret kinase. Besides, the inhibition at 1 µM at Tie2 is 4%. Moreover, the GI50 in the assay on AN3_CA and in the assay on Kato III was greater than 500 nM each time.

For `Cc1cc2c(F)c(Oc3cc(Nc4cccc(N5CCOCC5)c4)ncn3)ccc2[nH]1` [Example 8], the inhibition at 1 µM against Abl kinase came out at 11%; on Alk kinase, 60%; on c-Src kinase, 15%; against FGFR1 kinase, 97%; at KDR kinase, 98%; against Ret kinase, 22%. Moreover, the inhibition at 1 µM at Tie2 worked out at 2%. The GI50 in the assay on AN3_CA and in the assay on Kato III was greater than 500 nM each time.

Regarding `Cc1cc2c(F)c(Oc3cc(Nc4ccc(N5CCOCC5)cc4)ncn3)ccc2[nH]1` [Example 9], the inhibition at 1 µM against Abl kinase amounted to 21%; at Alk kinase, 70%; at c-Src kinase, 20%; on FGFR1 kinase, 75%; against KDR kinase, 96%; at Ret kinase, 35%. At Tie2, the inhibition at 1 µM worked out at 24%. In addition, the 50% growth inhibitory concentration (GI50) in the assay with AN3_CA and in the assay with Kato III was greater than 500 nM in each case.

Turning to `CNC(=O)c1ccc(Nc2cc(Oc3ccc4[nH]c(C)cc4c3F)ncn2)cc1` [Example 12], the inhibition at 1 µM at Abl kinase worked out at 18%; on Alk kinase it was 60%; on c-Src kinase, 30%; on FGFR1 kinase, 89%; on KDR kinase it was 98%; at Ret kinase it was 21%. The inhibition at 1 µM on Tie2 came out at 20%. Besides, the GI50 with AN3_CA and with Kato III was greater than 500 nM in each case.

`Cc1cc2c(F)c(Oc3cc(Nc4cccc(N5CCN(C)CC5)c4)ncn3)ccc2[nH]1` [Example 13]: the inhibition at 1 µM at Abl kinase is 41%; against Alk kinase, 60%; on c-Src kinase it was 32%; on FGFR1 kinase it was 98%; at KDR kinase, 98%; on Ret kinase, 61%. In addition, on Tie2, the inhibition at 1 µM amounted to 70%. In addition, the GI50 with AN3_CA was greater than 500 nM; with Kato III, 170 nM.

Consider `Cc1cc2c(F)c(Oc3cc(Nc4ccccn4)ncn3)ccc2[nH]1` [Example 18], for which the inhibition at 1 µM amounted to 45% against Abl kinase; 15% at Alk kinase; 21% at c-Src kinase; 87% on FGFR1 kinase; 92% against KDR kinase; 68% against Ret kinase. Besides, the inhibition at 1 µM against Tie2 came out at 48%. In the assay on AN3_CA, this compound gave a GI50 greater than 500 nM.

Take `CCOC(=O)c1cc(Nc2cc(Oc3ccc4[nH]c(C)cc4c3F)ncn2)n[nH]1` [Example 19]: the inhibition at 1 µM against Abl kinase is 18%; against Alk kinase, -5%; on c-Src kinase it was 8%; at FGFR1 kinase, 59%; against KDR kinase, 89%; at Ret kinase it was 48%. Besides, on Tie2, the inhibition at 1 µM was determined as 13%. The compound also displayed a concentration for 50% growth inhibition (GI50) in the assay on AN3_CA greater than 500 nM.

Turning to `Cc1cc2c(F)c(Oc3ncnc(Nc4ccc(N5CCN(C)CC5)cc4)c3F)ccc2[nH]1` [Example 24], the inhibition at 1 µM on Abl kinase is 0%; on Alk kinase, 38%; at c-Src kinase, 11%; against FGFR1 kinase, 97%; at KDR kinase, 96%; on Ret kinase it was -12%. Moreover, the inhibition at 1 µM against Tie2 is -6%. The GI50 in the assay with AN3_CA was greater than 500 nM; in the assay on Kato III it was 386 nM.

For the compound `CC(=O)N1CCN(c2ccc(Nc3ncnc(Oc4ccc5[nH]c(C)cc5c4F)c3F)cc2)CC1` [Example 26], the inhibition at 1 µM against Abl kinase was 7%; at Alk kinase, 68%; on c-Src kinase, 16%; against FGFR1 kinase, 46%; against KDR kinase, 96%; against Ret kinase, -17%. In addition, on Tie2, the inhibition at 1 µM was -11%. Also, the GI50 in the assay with AN3_CA and in the assay on Kato III was greater than 500 nM each time.

For `Cc1cc2c(F)c(Oc3ncnc(Nc4ccc(N5CCN(C)CC5)cn4)c3F)ccc2[nH]1` [Example 27], the inhibition at 1 µM against Abl kinase was 4%; against Alk kinase, 35%; on c-Src kinase it was 11%; against FGFR1 kinase it was 85%; against KDR kinase, 79%; against Ret kinase, -46%. Further, the inhibition at 1 µM against Tie2 was -2%. In addition, the GI50 in the assay with AN3_CA and in the assay on Kato III was greater than 500 nM in each case.

As for `Cc1cc2c(F)c(Oc3ncnc(Nc4ccc(N5CCNCC5)cc4)c3F)ccc2[nH]1` [Example 28], the inhibition at 1 µM against Abl kinase was 12%; against Alk kinase, 62%; at c-Src kinase, 17%; against FGFR1 kinase, 96%; against KDR kinase it was 97%; against Ret kinase, -15%. Further, the inhibition at 1 µM against Tie2 was -7%. Also, the GI50 in the assay on AN3_CA and in the assay with Kato III was greater than 500 nM throughout.

Turning to `CCN1CCN(c2ccc(Nc3ncnc(Oc4ccc5[nH]c(C)cc5c4F)c3F)nc2)CC1` [Example 29, N-(5-(4-ethylpiperazin-1-yl)pyridin-2-yl)-5-fluoro-6-((4-fluoro-2-methyl-1H-indol-5-yl)oxy)pyrimidin-4-amine], the inhibition at 1 µM against Abl kinase is -7%; against Alk kinase, -48%; on c-Src kinase it was 15%; against FGFR1 kinase it was 92%; against KDR kinase, 70%; against Ret kinase it was -29%. For the same compound, the inhibition at 1 µM on Tie2 is 33%. In addition, the GI50 with MDA-MB134, in the assay with AN3_CA and in the assay on Kato III was greater than 500 nM each time.
